Experimental findings from patent US20200333357A1, “NOVEL TFEB PATHWAY AGONISTS FOR METABOLIC DISEASES AND AGEING” (The Board of Regents of the University of Texas System, priority 2017, published 2020) are described below.

For series [1], the system named is C57BL/6J mice fed a high-fat diet. Description: High-fat diet mouse model for in vivo compound delivery. The note with it: for known TFEB target genes mRNA in liver and muscle: HFD mice treated with AD or IKA (PEG-PLA nanoparticles i.v.); for high fat diet-induced steatosis (liver histology): 3 weeks, DG oral, AD and IKA i.v. in PEG-PLA nanoparticles; for body weight/composition and blood chemistry: AD 1 mg kg-1 or IKA 0.5 mg kg-1 in PEG-PLA nanoparticles i.v.; for expression of Ppargc1α, Ppar1α and Fgf21: liver. Here is the method: Total RNA was isolated from MEFs or mouse tissues using RNeasy minipreps (QIAGEN). Complementary DNA (cDNA) was synthesized with the High capacity RNA-to-cDNA kit (Applied biosystems), and qRT-PCR was performed using TaqMan® Gene Expression Assays (Applied biosystems) for the indicated genes on the LightCycler System (Roche Applied Science). Gapdh was used to normalize RNA input. The mouse probes used in this study were: Tfeb (Mm00448968_m1), Ctsa (Mm00447197_m1), Mcoln 1 (Mm00522550_m1), Ppara (Mm00440939_m1), Ppargc1a (Mm01208835_m1), Fgf21 (Mm00840165_g1) and Gapdh (Mm99999915_g1), and the human probes used were TFEB (Hs00292981_m1), CTSA (Hs00264902_m1), MCOLN1 (Hs01100653_m1), PPARGC1A (Hs00173304_m1), PPARA (Hs00947536_m1), UVRAG (Hs01075434_m1), GAPDH (Hs02758991_g1) and p62/SQSTM1 (Hs01061917_g1). All probes were from Thermo Fisher Scientific Inc.
All mouse experiments were approved and carried out following the ethical guidelines established by the Institutional Animal Care and Use Committee at UT Southwestern Medical Center. The investigators were not blinded to allocation during experiments and outcome assessment. Four to six weeks old male C57BL/6J mice were randomly divided into groups fed a regular diet (Harlan Teklad) or a high-fat diet (HFD) containing 60% fat (Research Diets). After one month, the HFD mice were grouped so that the average body weights of mice in each group were similar. The grouped mice were orally administered DG (2.5 mg kg-1) or its solvent 50% HPβCD solution, or intravenously injected with AD (1 mg kg-1) or IKA (0.5 mg kg-1) encapsulated in the PEG-PLA nanoparticles or empty nanoparticles, three times a week for three weeks. Body weight and food intake were measured twice a week before treatment and every day after treatment in the middle of the light period. The cage tops containing food pellets were weighed, as well as the spilled food in the bottom of the cage. The food intake was corrected for spillage.
At the end of the treatment, the body composition of each mouse was analyzed by EchoMRI (Echo Medical Systems LLC) according to the manufacturer's instructions.
For glucose tolerance tests, the mice were orally administered 1 mg g-1 glucose (Sigma-Aldrich) after a 4 hr fast. For insulin tolerance tests, the mice were intraperitoneally injected with 0.75 milliunit g-1 insulin (Humulin R, Eli Lily) after a 4 hr fast. Blood was drawn from tail veins at indicated time points after injection. Experiments were performed during light period. Serum glucose levels were analyzed using commercial glucose reagents (Sigma).
At the end of the treatment, blood was collected from the orbital plexus under anesthesia. Serum was frozen in aliquots and stored at −20° C. for further analysis. Specific enzyme kits were used to detect serum levels of triglyceride (Fisher Scientific), cholesterol (Fisher Scientific) and glucose (Sigma-Aldrich).
Livers and other organs were dissected and embedded in OCT. Cryostat sections were cut at 10 μm. The sections were stored at −80° C. and subjected to haematoxylin/eosin and oil red O staining following standard protocol. The immunohistochemistry (IHC) staining of p62 was performed following the protocol of Cell Signaling Technology. The primary antibody was from Abcam, and the SignalStain® boost IHC detection reagent and DAB substrate kit were from Cell Signaling Technology. All the sections were imaged using a NanoZoomer 2.0-HT Digital slide scanner (Hamamatzu) and processed using NDP viewer software.

For a further series, the system named is HLH-30. The series can be described thus: HLH-30::GFP nuclear localization assay. Format: in vivo, C. elegans. The note with it: dal-1(dt2300); sqIs19 worms, 5 μM IKA. Here is the method:
Adult TX1941 dal-1(dt2300); sqIs19 [hlh-30p::hlh-30::GFP rol-6(+)] worms were placed on NGM plates with either a test chemical or 5% DMSO. GFP was scored at various intervals on live worms without mounting using a Zeiss Axio Zoom. V16 fluorescence dissecting microscope equipped with Axiocam 503. No difference was observed between 2 hour and overnight treatment.

The subject of the next series is mTORC1. Description: TSC2 dependence of mTORC1 inhibition and TFEB activation in p53-/- and p53-/-, TSC2-/- MEFs. Format: cell-based, mouse. The note with it: p53-/- vs p53-/-.
Series [2] concerns mice under fed and fast conditions. Description: Short-term starvation and chloroquine-induced acute hepatic lipid accumulation in mice. Format: in vivo, mouse. Here is the method:
SFIGS. […] (SFIG. 6A) The body weight (left y-axis, solid symbols) and food intake (right y-axis, open symbols) measured in normal-diet-fed mice treated with vehicle or 2.5 mg/kg DG. (SFIG. 6B) Drug release curves of AD (upper panel) and IKA (lower panel) in PBS. […] (SFIG. 6F) Cells were treated with various doses DG, AD and IKA for 4 hours, and cell viability was measured immediately or after 72 hours. Dose response curves were simulated using ImageJ. (SFIG. 6G) H&E staining of heart, spleen and kidney sections from mice treated with DG, AD, IKA and their corresponding controls. Scale bar, 100 μm. (SFIG. 6H) H&E staining of liver and heart sections as well as ORO and p62/SQSTM1 IHC staining of liver sections from mice under fed and fast conditions with orally injected DG and intraperitoneally injected CQ, individually and jointly, or their corresponding control (Saline). Scale bar, 50 μm. (SFIG. 6I) The body weight of mice after the treatment described in SFIG. 6H. (SFIGS. 6J-L) Total serum levels of triglyceride, cholesterol and glucose of mice after the treatment described in SFIG. 6G.

For a further series, the system named is HepG2 cells. The series can be described thus: Oleic acid-induced lipid accumulation (oil red O staining). Particulars: 1 mM oleic acid; 370 nM DG, 3.3 μM AD and IKA.
[3] abbreviates: HFD mice, three times a week for three weeks.
Where [4] appears, read: HFD mice, DG 2.5 mg kg-1 oral, three times a week for three weeks.

Where a name gives a salt, the structure may show the parent alone.

Turning to `CC[C@H]1[C@@H]2C=C[C@@H]3[C@H]4C/C=C\C(=O)NCCC[C@@H]5NC(=O)/C(=C(O)/C=C/[C@@H]4C[C@@H]3[C@H]2C[C@H]1C)C5=O` [IKA, ikarugamycin], in series [1], the “known TFEB target genes mRNA in liver and muscle” value was “upregulated in the liver rather than in the muscle”. Further, in series [1] (HFD mice), the “high fat diet-induced steatosis (liver histology)” value was “amelioration”; the “expression of Ppargc1α, Ppar1α and Fgf21” value is given as “upregulation”. In addition, in series [1] (setting [3]), the “body weight/composition and blood chemistry” value is recorded as “significant normalization”. Besides, the “nuclear accumulation of GFP-tagged HLH30 within intestinal cells in adults” value with HLH-30 is “induce nuclear accumulation”. In addition, the “dependence of mTORC1 inhibition / TFEB activation on TSC2” value in the series on mTORC1 is recorded as “TSC2-dependent”.

For the molecule `C[C@H]1O[C@@H](O[C@H]2[C@@H](O)C[C@H](O[C@H]3[C@@H](O)C[C@H](O[C@H]4CC[C@@]5(C)[C@H](CC[C@@H]6[C@@H]5C[C@@H](O)[C@]5(C)[C@@H](C7=CC(=O)OC7)CC[C@]65O)C4)O[C@@H]3C)O[C@@H]2C)C[C@H](O)[C@@H]1O` [DG, digoxin, reference compound], in series [2] (fast, CQ, DG oral), the “p62/SQSTM1 accumulation in liver” value is reported as “reduction”. Moreover, the “fast-induced hepatic lipid accumulation” value in series [2] (overnight fast, CQ intraperitoneal, DG oral co-administration) was “improved”. Further, in series [1] (HFD mice), the “high fat diet-induced steatosis (liver histology)” value is on record as “amelioration”; the “expression of Ppargc1α, Ppar1α and Fgf21” value is recorded as “upregulation”. Besides, in series [1] (setting [4]), the body composition result is reported as “normalized”, the body weight entry is on record as “normalized”, the circulating cholesterol result was “normalized” and the circulating glucose entry is reported as “normalized”. Moreover, in series [1] (setting [4]), the circulating insulin levels result is reported as “normalized” and the circulating triglycerides result is reported as “normalized”. Moreover, in the series on HepG2 cells, the “oleic acid-induced lipid accumulation in human hepatocytes” value was “significantly ameliorated”.

On to `CCCCC(CC)CNC(=N)NC(=N)NCCCCCCNC(=N)NC(=N)NCC(CC)CCCC` (centres unmarked) [AD, alexidine dihydrochloride], for which the “known TFEB target genes mRNA in liver and muscle” value in series [1] is given as “upregulated in the liver rather than in the muscle”. In series [1] (HFD mice), the “high fat diet-induced steatosis (liver histology)” value was “amelioration”; the “expression of Ppargc1α, Ppar1α and Fgf21” value is given as “upregulation”. In addition, the “body weight/composition and blood chemistry” value in series [1] (setting [3]) was “significant normalization”. In addition, the “oleic acid-induced lipid accumulation in human hepatocytes” value with HepG2 cells is reported as “significantly ameliorated”. The “dependence of mTORC1 inhibition / TFEB activation on TSC2” value with mTORC1 was “TSC2-dependent”.
